Source: patent publication US20050106292A1, “High moisture, shelf-stable acidulated food products” (priority 2003, published 2005)

Test: Contact of acidic solution with human skin
Format: in vivo
Conditions: solution with a pH of less than 0.5

Structure (SMILES): O=S(=O)(O)O [sulfuric acid]
- irritation or injury of the hand put into the solution: an irritation would occur
